Results reported in the NIST ThermoML archive (doi:10.1016/j.jct.2011.08.009).
Several values for one entry are separate records, joined by “and”; a condition that tells them apart may be missing. Equal entries are not always repeated.

Settings: Liquid, Closed cell (Static) method

NC1CCCCC1 [cyclohexylamine]
Settings | vapor or sublimation pressure
273.15 K | 0.2306 kPa
274.3 K | 0.2512 kPa
283.15 K | 0.4646 kPa
283.86 K | 0.4861 kPa
293.15 K | 0.8833 kPa
293.83 K | 0.9213 kPa
293.86 K | 0.9213 kPa
293.88 K | 0.9229 kPa and 0.9217 kPa
303.15 K | 1.596 kPa
303.79 K | 1.661 kPa
303.82 K | 1.66 kPa
303.84 K | 1.661 kPa
313.15 K | 2.756 kPa
313.79 K | 2.852 kPa
313.81 K | 2.854 kPa
323.15 K | 4.573 kPa
323.92 K | 4.755 kPa
323.97 K | 4.757 kPa
323.99 K | 4.757 kPa and 4.758 kPa
333.15 K | 7.32 kPa
334 K | 7.563 kPa
343.15 K | 11.35 kPa
344 K | 12.08 kPa
353.15 K | 17.98 kPa
354.06 K | 17.65 kPa
363.15 K | 25.06 kPa
364.1 K | 25.96 kPa
364.13 K | 25.94 kPa and 25.96 kPa

O [water]
Settings | vapor or sublimation pressure [kPa]
273.15 K | 0.5817
283.15 K | 1.186
293.15 K | 2.281
303.15 K | 4.172
313.15 K | 7.294
323.15 K | 12.25
333.15 K | 19.84
343.15 K | 31.11
353.15 K | 47.37
363.15 K | 70.25

CCC(C)N (stereo unspecified) [2-butanamine]
Settings | vapor or sublimation pressure
274.06 K | 6.81 kPa
274.09 K | 6.804 kPa
283.91 K | 11.46 kPa
293.15 K | 18.43 kPa
293.88 K | 19.21 kPa
303.15 K | 29.11 kPa
303.84 K | 30.04 kPa and 30.03 kPa
313.15 K | 44.25 kPa
313.81 K | 45.47 kPa and 45.38 kPa
323.15 K | 65.05 kPa
323.92 K | 66.77 kPa
333.15 K | 92.82 kPa
333.91 K | 95.07 kPa and 95.08 kPa and 95.1 kPa
343.15 K | 128.99 kPa
343.86 K | 132.08 kPa and 132.05 kPa
353.15 K | 175.09 kPa
353.9 K | 179.16 kPa and 178.99 kPa
363.15 K | 232.69 kPa
